# According to patent US20170157143A1, “NORPREGNANE DERIVATIVES FOR THE RISK REDUCTION OF BREAST CANCER” (Helix Twelve Pharmaceuticals Corporation, Inc., priority 2015, published 2017):
# Tests used:
# breast carcinoma = test: HLX-801 prophylactic therapy against breast cancer in at-risk subject groups compared to tamoxifen; type: in vivo, human
# Protocol: Table 1: Exemplary effect of HLX-801 prophylactic therapy against breast cancer cells in at-risk subject groups compared to Tamoxifen (“TAM”) 1 mg.
# [1] = Side effect profile of HLX-801; settings: in vivo
# From the text: The compounds are associated with the absence of the side effects that currently limit the adoption of the currently available tamoxifen and aromatase inhibition approaches by at risk individuals.
# breast cancer = settings: DCIS patients; cited from earlier work
smiles,measurement,setting,value
"CCN(CC)Cc1ccc(OCC[C@H]2CCC3C4[C@H](C)Cc5cc(O)ccc5[C@H]4CC[C@@]32C)c(OC)c1 (stereo partly drawn) [HLX-801, (7α)-21-[4-[(diethylamino)methyl]-2-methoxyphenoxy]-7-methyl-19-norpregna-1,3,5(10)-trien-3-ol 2-hydroxy-1,2,3-propanetricarboxylate]",No. of subjects developing breast carcinoma,"breast carcinoma; HLX-801 1 mg, patients group 7/17",3
same,No. of subjects developing breast carcinoma,"breast carcinoma; HLX-801 1 mg, patients group 7/21",2
same,No. of subjects developing breast carcinoma,"breast carcinoma; HLX-801 1 mg, patients group 7/24",3
same,No. of subjects developing breast carcinoma,"breast carcinoma; HLX-801 5 mg, patients group 7/17",1
same,No. of subjects developing breast carcinoma,"breast carcinoma; HLX-801 5 mg, patients group 7/21",2
same,No. of subjects developing breast carcinoma,"breast carcinoma; HLX-801 5 mg, patients group 7/24",2
same,No. of subjects developing breast carcinoma,"breast carcinoma; HLX-801 10 mg, patients group 7/17",1
same,No. of subjects developing breast carcinoma,"breast carcinoma; HLX-801 10 mg, patients group 7/21",1
same,No. of subjects developing breast carcinoma,"breast carcinoma; HLX-801 10 mg, patients group 7/24",1
same,No. of subjects developing breast carcinoma,"breast carcinoma; HLX-801 20 mg, patients group 7/17",1
same,No. of subjects developing breast carcinoma,"breast carcinoma; HLX-801 20 mg, patients group 7/21",1
same,No. of subjects developing breast carcinoma,"breast carcinoma; HLX-801 20 mg, patients group 7/24",1
same,No. of subjects developing breast carcinoma,"breast carcinoma; HLX-801 40 mg, patients group 7/17",1
same,No. of subjects developing breast carcinoma,"breast carcinoma; HLX-801 40 mg, patients group 7/21",1
same,No. of subjects developing breast carcinoma,"breast carcinoma; HLX-801 40 mg, patients group 7/24",1
same,No. of subjects developing breast carcinoma,"breast carcinoma; HLX-801 80 mg, patients group 7/17",1
same,No. of subjects developing breast carcinoma,"breast carcinoma; HLX-801 80 mg, patients group 7/21",1
same,No. of subjects developing breast carcinoma,"breast carcinoma; HLX-801 80 mg, patients group 7/24",1
same,bone loss (long-term risk of fractures),[1],no evidence of bone loss
same,muscle aches,[1],no reports of muscle aches
same,uterine thickening (indicator of risk for treatment-induced uterine cancer),[1],no evidence of uterine thickening
same,venous thrombembolism (indicator of risk for stroke),[1],no evidence of venous thrombembolism
"CC/C(=C(\c1ccccc1)c1ccc(OCCN(C)C)cc1)c1ccccc1 [TAM, Tamoxifen, reference compound]",No. of subjects developing breast carcinoma,"breast carcinoma; TAM 1 mg, patients group 7/17",12
same,No. of subjects developing breast carcinoma,"breast carcinoma; TAM 1 mg, patients group 7/21",11
same,No. of subjects developing breast carcinoma,"breast carcinoma; TAM 1 mg, patients group 7/24 (# of cohorts/# of subjects per cohort)",12
same,reduction of the risk to progression to breast cancer,breast cancer,30%
